Results taken from patent US12466800B2, “N-((1,2,3,5,6,7-hexahydro-S-indacen-4-yl)carbamoyl)-4, 5, 6, 7-tetrahydrobenzofuran-2-sulfonamide derivatives and related compounds as NLPR3 modulators for the treatment of multiple sclerosis (MS)” (Zomagen Biosciences Ltd, priority 2019, dated 2025).

Tested on: IL-1b
Test: Mouse BMDM IL-1b Assay
Assay type: cell-based
Conditions: Macrophage; mouse bone marrow derived macrophages (C57BL6); 200 ng/mL LPS 3 h, compound 30 min, 5 mM ATP 45 min; IL-1b ELISA of supernatant
Method: Example 20: Mouse BMDM IL-1b Assay
Mouse bone marrow cells from C57BL6 tibia and femur were culture in complete Isocov's Media supplemented with 20 ng/mL MCSF (BMDM media) at a density of 50 million cells/15 cm Petri dish. Fresh media was changed every 3 days, and bone marrow derived macrophages were collected, washed, and counted on day 7. Cells were seeded into 96 well plates at a density of 5×10^4 cells per well in 100 uL of BMDM media and cultured overnight. The cells were stimulated at 37° C. with 200 ng/mL Ultrapure LPS-B5 for 3 hours before pre-diluted compounds were added. 30 minutes after compound addition, 5 mM ATP was added for the secondary stimulation for 45 minutes. After stimulation, the plates were briefly spun down, and 50 uL of supernatant was harvested from each well. ELISA for mouse IL-1b was performed with 1:10 and 1:100 diluted supernatant using pre-coated kits. IL-1b concentrations were calculated based on pre-titrated standards, and compound inhibition IC50 is generated using the Levenberg Marquardt damped lease-square method.

Structure (SMILES) | IC50 [nM]
CC(C)c1cc(F)cc(C(C)C)c1NC(=O)NS(=O)(=O)c1cc2c(o1)CCC/C2=N/O [Compound 85, (Z)-N-((4-fluoro-2,6-diisopropylphenyl)carbamoyl)-4-(hydroxyimino)-4,5,6,7-tetrahydrobenzofuran-2-sulfonamide] | 1000 to 10000
CC1(C)CCc2oc(S(=O)(=O)NC(=O)Nc3c4c(cc5c3CCC5)CCC4)cc2C1O (stereo not drawn) [Compound 14, N-((1,2,3,5,6,7-hexahydro-s-indacen-4-yl)carbamoyl)-4-hydroxy-5,5-dimethyl-4,5,6,7-tetrahydrobenzofuran-2-sulfonamide] | < 100
CN1CCCc2oc(S(=O)(=O)NC(=O)Nc3c4c(cc5c3CCC5)CCC4)cc2C1 [Compound 87, N-((1,2,3,5,6,7-hexahydro-s-indacen-4-yl)carbamoyl)-5-methyl-5,6,7,8-tetrahydro-4H-furo[3,2-c]azepine-2-sulfonamide] | < 100
CC(C)c1cc(Br)cc(C(C)C)c1NC(=O)NS(=O)(=O)c1cc2c(o1)CCCC2O (stereo not drawn) [Compound 69, N-((4-bromo-2,6-diisopropylphenyl)carbamoyl)-4-hydroxy-4,5,6,7-tetrahydrobenzofuran-2-sulfonamide] | 100 to 1000
CC1(C)CCc2oc(S(=O)(=O)NC(=O)Nc3c4c(cc5c3CCC5)CCC4)cc2C1(C)O (stereo not drawn) [Compound 11, N-((1,2,3,5,6,7-hexahydro-s-indacen-4-yl)carbamoyl)-4-hydroxy-4,5,5-trimethyl-4,5,6,7-tetrahydrobenzofuran-2-sulfonamide] | < 100
CC1(C)CC(=NO)c2cc(S(=O)(=O)NC(=O)Nc3c4c(cc5c3CCC5)CCC4)oc2C1 [Compound 49, N-((1,2,3,5,6,7-hexahydro-s-indacen-4-yl)carbamoyl)-4-(hydroxyimino)-6,6-dimethyl-4,5,6,7-tetrahydrobenzofuran-2-sulfonamide] | 100 to 1000
CC(C)N1CCCc2oc(S(=O)(=O)NC(=O)Nc3c4c(cc5c3CCC5)CCC4)cc2C1=O [Compound 84, N-((1,2,3,5,6,7-hexahydro-s-indacen-4-yl)carbamoyl)-5-isopropyl-4-oxo-5,6,7,8-tetrahydro-4H-furo[3,2-c]azepine-2-sulfonamide] | 1000 to 10000
CC1(O)CCCc2oc(S(=O)(=O)NC(=O)Nc3c4c(c(F)c5c3CCC5)CCC4)cc21 (stereo not drawn) [Compound 47, N-((8-fluoro-1,2,3,5,6,7-hexahydro-s-indacen-4-yl)carbamoyl)-4-hydroxy-4-methyl-4,5,6,7-tetrahydrobenzofuran-2-sulfonamide] | < 100
CC1CC(=NO)c2cc(S(=O)(=O)NC(=O)Nc3c4c(cc5c3CCC5)CCC4)oc2C1 (stereo not drawn) [Compound 48, N-((1,2,3,5,6,7-hexahydro-s-indacen-4-yl)carbamoyl)-4-(hydroxyimino)-6-methyl-4,5,6,7-tetrahydrobenzofuran-2-sulfonamide] | 100 to 1000
CC(C)c1cccc(C(C)C)c1NC(=O)NS(=O)(=O)c1cc2c(o1)CCCC2=NO [Compound 73, N-((2,6-diisopropylphenyl)carbamoyl)-4-(hydroxyimino)-4,5,6,7-tetrahydrobenzofuran-2-sulfonamide] | 100 to 1000
CC(C)C1Cc2oc(S(=O)(=O)NC(=O)Nc3c4c(cc5c3CCC5)CCC4)cc2C(C)(O)C1 (stereo not drawn) [Compound 27, N-((1,2,3,5,6,7-hexahydro-s-indacen-4-yl)carbamoyl)-4-hydroxy-6-isopropyl-4-methyl-4,5,6,7-tetrahydrobenzofuran-2-sulfonamide] | < 100
CC(C)c1c(F)c(Cl)c(F)c(C(C)C)c1NC(=O)NS(=O)(=O)c1cc2c(o1)CCCC2(C)O (stereo not drawn) [Compound 103, N-((4-chloro-3,5-difluoro-2,6-diisopropylphenyl)carbamoyl)-4-hydroxy-4-methyl-4,5,6,7-tetrahydrobenzofuran-2-sulfonamide] | 100 to 1000
CC(C)c1cc(F)cc(C(C)C)c1NC(=O)NS(=O)(=O)c1cc2c(o1)CCCC2O (stereo not drawn) [Compound 63, N-((4-fluoro-2,6-diisopropylphenyl)carbamoyl)-4-hydroxy-4,5,6,7-tetrahydrobenzofuran-2-sulfonamide] | 100 to 1000
CC(C)c1ccc(F)c(C(C)C)c1NC(=O)NS(=O)(=O)c1cc2c(o1)CCC/C2=N/O [Compound 97, (Z)-N-((3-fluoro-2,6-diisopropylphenyl)carbamoyl)-4-(hydroxyimino)-4,5,6,7-tetrahydrobenzofuran-2-sulfonamide] | 100 to 1000
CC(C)c1ccc(Cl)c(C(C)C)c1NC(=O)NS(=O)(=O)c1cc2c(o1)CCCCC2(C)O (stereo not drawn) [Compound 111, N-((3-chloro-2,6-diisopropylphenyl)carbamoyl)-4-hydroxy-4-methyl-5,6,7,8-tetrahydro-4H-cyclohepta[b]furan-2-sulfonamide] | 100 to 1000
N#Cc1c2c(c(NC(=O)NS(=O)(=O)c3cc4c(o3)CCCC4O)c3c1CCC3)CCC2 (stereo not drawn) [Compound 54, N-((8-cyano-1,2,3,5,6,7-hexahydro-s-indacen-4-yl)carbamoyl)-4-hydroxy-4,5,6,7-tetrahydrobenzofuran-2-sulfonamide] | 100 to 1000
O=C(Nc1c2c(c(Br)c3c1CCC3)CCC2)NS(=O)(=O)c1cc2c(o1)CCC/C2=N\O [Compound 95, (E)-N-((8-bromo-1,2,3,5,6,7-hexahydro-s-indacen-4-yl)carbamoyl)-4-(hydroxyimino)-4,5,6,7-tetrahydrobenzofuran-2-sulfonamide] | 100 to 1000
CCOC(=O)C#CC1(O)CCCc2oc(S(=O)(=O)NC(=O)Nc3c4c(cc5c3CCC5)CCC4)cc21 (stereo not drawn) [Compound 105, ethyl 3-(2-(N-((1,2,3,5,6,7-hexahydro-s-indacen-4-yl)carbamoyl)sulfamoyl)-4-hydroxy-4,5,6,7-tetrahydrobenzofuran-4-yl)propiolate] | 100 to 1000
CC1(O)CCCc2oc(S(=O)(=O)NC(=O)Nc3c4c(cc5c3CCC5)CCC4)cc21 (stereo not drawn) [Compound 5, N-((1,2,3,5,6,7-hexahydro-s-indacen-4-yl)carbamoyl)-4-hydroxy-4-methyl-4,5,6,7-tetrahydrobenzofuran-2-sulfonamide] | < 100
Cc1c(S(=O)(=O)NC(=O)Nc2c3c(cc4c2CCC4)CCC3)oc2c1/C(=N\O)CCC2 [Compound 99, (Z)-N-((1,2,3,5,6,7-hexahydro-s-indacen-4-yl)carbamoyl)-4-(hydroxyimino)-3-methyl-4,5,6,7-tetrahydrobenzofuran-2-sulfonamide] | 100 to 1000
CCC1(O)CCCc2oc(S(=O)(=O)NC(=O)Nc3c4c(cc5c3CCC5)CCC4)cc21 (stereo not drawn) [Compound 45, 4-ethyl-N-((1,2,3,5,6,7-hexahydro-s-indacen-4-yl)carbamoyl)-4-hydroxy-4,5,6,7-tetrahydrobenzofuran-2-sulfonamide] | < 100

Now from value to molecule:

IC50 [nM] | Structure (SMILES)
< 100 | O=C(Nc1c2c(c(C(F)(F)F)c3c1CCC3)CCC2)NS(=O)(=O)c1cc2c(o1)CCCC2O (stereo not drawn) [Compound 55, 4-hydroxy-N-((8-(trifluoromethyl)-1,2,3,5,6,7-hexahydro-s-indacen-4-yl)carbamoyl)-4,5,6,7-tetrahydrobenzofuran-2-sulfonamide]
100 to 1000 | O=C(Nc1c2c(c(Cl)c3c1CCC3)CCC2)NS(=O)(=O)c1cc2c(o1)CCC/C2=N\O [Compound 96, (E)-N-((8-chloro-1,2,3,5,6,7-hexahydro-s-indacen-4-yl)carbamoyl)-4-(hydroxyimino)-4,5,6,7-tetrahydrobenzofuran-2-sulfonamide]
1000 to 10000 | CC(C)c1cccc(C(C)C)c1CC(=O)NS(=O)(=O)c1cc2c(o1)CCC(C)(C)C2O (stereo not drawn) [Compound 74, 2-(2,6-diisopropylphenyl)-N-((4-hydroxy-5,5-dimethyl-4,5,6,7-tetrahydrobenzofuran-2-yl)sulfonyl)acetamide]
100 to 1000 | CC(C)c1cccc(C(C)C)c1NC(=O)NS(=O)(=O)c1cc2c(o1)CCCC2(C)O (stereo not drawn) [Compound 60, N-((2,6-diisopropylphenyl)carbamoyl)-4-hydroxy-4-methyl-4,5,6,7-tetrahydrobenzofuran-2-sulfonamide]
< 100 | O=C(Nc1c2c(c(F)c3c1CCC3)CCC2)NS(=O)(=O)c1cc2c(o1)CCC/C2=N/O [Compound 89, (Z)-N-((8-fluoro-1,2,3,5,6,7-hexahydro-s-indacen-4-yl)carbamoyl)-4-(hydroxyimino)-4,5,6,7-tetrahydrobenzofuran-2-sulfonamide]
1000 to 10000 | CC(C)c1c(F)c(Cl)c(F)c(C(C)C)c1NC(=O)NS(=O)(=O)c1cc2c(o1)CCC/C2=N/O [Compound 100, (Z)-N-((4-chloro-3,5-difluoro-2,6-diisopropylphenyl)carbamoyl)-4-(hydroxyimino)-4,5,6,7-tetrahydrobenzofuran-2-sulfonamide]
100 to 1000 | CC(C)c1cc(C#N)cc(C(C)C)c1NC(=O)NS(=O)(=O)c1cc2c(o1)CCCC2O (stereo not drawn) [Compound 71, N-((4-cyano-2,6-diisopropylphenyl)carbamoyl)-4-hydroxy-4,5,6,7-tetrahydrobenzofuran-2-sulfonamide]
100 to 1000 | CC(C)c1ccc(F)c(C(C)C)c1NC(=O)NS(=O)(=O)c1cc2c(o1)CCC/C2=N\O [Compound 98, (E)-N-((3-fluoro-2,6-diisopropylphenyl)carbamoyl)-4-(hydroxyimino)-4,5,6,7-tetrahydrobenzofuran-2-sulfonamide]
< 100 | CC1(C)Cc2oc(S(=O)(=O)NC(=O)Nc3c4c(cc5c3CCC5)CCC4)cc2C(O)C1 (stereo not drawn) [Compound 22, N-((1,2,3,5,6,7-hexahydro-s-indacen-4-yl)carbamoyl)-4-hydroxy-6,6-dimethyl-4,5,6,7-tetrahydrobenzofuran-2-sulfonamide]
